{"source": "ChEMBL document CHEMBL1150191", "about": "“Isolation of Eupalmerin, a Minor Cembranoid Diterpene from the Caribbean Gorgonian Eunicea mammosa” (J Nat Prod, 1991)", "test": "Cytotoxicity against CHOK1 cells", "assay_type": "cell-based, Cricetulus griseus", "conditions": "chinese hamster, CHO-K1 cells; read-out: ED50 (the source's name)"}
{"smiles": "C=C1C(=O)O[C@H]2[C@H](O)[C@@H](C)CCC/C(C)=C/CC[C@@]3(C)O[C@H]3C[C@@H]12", "note": "[EUPALMERIN]", "values": [{"measurement": "CC50", "value": 5.46, "unit": "µg/mL"}]}
